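Dose response: 5 concentrations. Exposure: 48 h. Format: 96-well plates. Endpoint: linear interpolation; highest concentration if not reached. The concentration for 50% growth inhibition is given as GI50. Definition used: TGI = concentration required for complete inhibition of growth.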
Columns and labels:
Assay in all cases: NCI anticancer screen, dose series, 48 h
TK-10 renal = system: TK-10 renal
PC-3 prostate = system: PC-3 prostate
SNB-19 CNS = system: SNB-19 CNS
MALME-3M melanoma = system: MALME-3M melanoma
A498 renal = system: A498 renal
UACC-257 melanoma = system: UACC-257 melanoma
U251 CNS = system: U251 CNS
SK-MEL-28 melanoma = system: SK-MEL-28 melanoma
IGROV1 ovarian = system: IGROV1 ovarian
SW-620 colon = system: SW-620 colon
MOLT-4 leukemia = system: MOLT-4 leukemia
OVCAR-4 ovarian = system: OVCAR-4 ovarian
SNB-75 CNS = system: SNB-75 CNS
HS 578T breast = system: HS 578T breast
M14 melanoma = system: M14 melanoma
DU-145 prostate = system: DU-145 prostate
RXF 393 renal = system: RXF 393 renal
SF-268 CNS = system: SF-268 CNS
SK-MEL-5 melanoma = system: SK-MEL-5 melanoma
HCT-15 colon = system: HCT-15 colon
SK-OV-3 ovarian = system: SK-OV-3 ovarian
OVCAR-8 ovarian = system: OVCAR-8 ovarian
ACHN renal = system: ACHN renal
MDA-MB-435 = system: MDA-MB-435
EKVX NSCLC = system: EKVX NSCLC
COLO 205 colon = system: COLO 205 colon
NCI-H522 lung = system: NCI-H522 lung
SN12C renal = system: SN12C renal
SF-539 CNS = system: SF-539 CNS
HCC-2998 colon = system: HCC-2998 colon
MCF7 breast = system: MCF7 breast
NCI-H23 lung = system: NCI-H23 lung
RPMI-8226 leukemia = system: RPMI-8226 leukemia
SR leukemia = system: SR leukemia
LOX IMVI melanoma = system: LOX IMVI melanoma
CCRF-CEM leukemia = system: CCRF-CEM leukemia
NCI/ADR-RES ovarian = system: NCI/ADR-RES ovarian
HL-60(TB) leukemia = system: HL-60(TB) leukemia
SK-MEL-2 melanoma = system: SK-MEL-2 melanoma
HOP-92 NSCLC = system: HOP-92 NSCLC
NCI-H460 lung = system: NCI-H460 lung
HCT-116 colon = system: HCT-116 colon
OVCAR-3 ovarian = system: OVCAR-3 ovarian
MDA-MB-231 breast = system: MDA-MB-231 breast
BT-549 breast = system: BT-549 breast
HOP-62 NSCLC = system: HOP-62 NSCLC
NCI-H226 lung = system: NCI-H226 lung
OVCAR-5 ovarian = system: OVCAR-5 ovarian
T-47D breast = system: T-47D breast
A549 NSCLC = system: A549 NSCLC
UO-31 renal = system: UO-31 renal
SF-295 CNS = system: SF-295 CNS
786-0 renal = system: 786-0 renal
KM12 colon = system: KM12 colon
UACC-62 melanoma = system: UACC-62 melanoma
HT29 colon = system: HT29 colon

CCOC(=O)C1=C(N)Oc2cc(OC)ccc2C1c1ccc(F)c(F)c1 (configuration not stated)
GI50 (TK-10 renal): 9.5 µM
TGI (TK-10 renal): 21.8 µM
GI50 (PC-3 prostate): 2.33 µM
TGI (PC-3 prostate): 15.1 µM
GI50 (SNB-19 CNS): 1.83 µM
TGI (SNB-19 CNS): 17.4 µM
GI50 (MALME-3M melanoma): 10.3 µM
TGI (MALME-3M melanoma): 24.1 µM
GI50 (A498 renal): 1.29 µM
TGI (A498 renal): 11.9 µM
GI50 (UACC-257 melanoma): 11.5 µM
TGI (UACC-257 melanoma): 24 µM
GI50 (U251 CNS): 1.84 µM
TGI (U251 CNS): 14.3 µM
GI50 (SK-MEL-28 melanoma): 6.44 µM
TGI (SK-MEL-28 melanoma): 21.9 µM
GI50 (IGROV1 ovarian): 2.72 µM
TGI (IGROV1 ovarian): 20.1 µM
GI50 (SW-620 colon): 0.516 µM
TGI (SW-620 colon): 15.9 µM
GI50 (MOLT-4 leukemia): 1.58 µM
TGI (MOLT-4 leukemia): 22.3 µM
GI50 (OVCAR-4 ovarian): 3.37 µM
TGI (OVCAR-4 ovarian): 18.6 µM
GI50 (SNB-75 CNS): 1.64 µM
TGI (SNB-75 CNS): 11.1 µM
GI50 (HS 578T breast): 2.48 µM
TGI (HS 578T breast): 21.3 µM
GI50 (M14 melanoma): 0.483 µM
TGI (M14 melanoma): 13.5 µM
GI50 (DU-145 prostate): 2.56 µM
TGI (DU-145 prostate): 11.4 µM
GI50 (RXF 393 renal): 1.55 µM
TGI (RXF 393 renal): 8.76 µM
GI50 (SF-268 CNS): 8.56 µM
TGI (SF-268 CNS): 23.5 µM
GI50 (SK-MEL-5 melanoma): 1.68 µM
TGI (SK-MEL-5 melanoma): 12.6 µM
GI50 (HCT-15 colon): 0.503 µM
TGI (HCT-15 colon): 14.3 µM
GI50 (SK-OV-3 ovarian): 3.66 µM
TGI (SK-OV-3 ovarian): 16.4 µM
GI50 (OVCAR-8 ovarian): 3.28 µM
TGI (OVCAR-8 ovarian): 19.2 µM
GI50 (ACHN renal): 5.74 µM
TGI (ACHN renal): 19.8 µM
GI50 (MDA-MB-435): 0.229 µM
TGI (MDA-MB-435): 0.844 µM
GI50 (EKVX NSCLC): 3.67 µM
TGI (EKVX NSCLC): 17.9 µM
GI50 (COLO 205 colon): 1.05 µM
TGI (COLO 205 colon): 8.97 µM
GI50 (NCI-H522 lung): 0.498 µM
TGI (NCI-H522 lung): 10.2 µM
GI50 (SN12C renal): 4.97 µM
TGI (SN12C renal): 19.5 µM
GI50 (SF-539 CNS): 2.13 µM
TGI (SF-539 CNS): 8.3 µM
GI50 (HCC-2998 colon): 4.14 µM
TGI (HCC-2998 colon): 18.4 µM
GI50 (MCF7 breast): 0.452 µM
TGI (MCF7 breast): 18.7 µM
GI50 (NCI-H23 lung): 2.89 µM
TGI (NCI-H23 lung): 18.4 µM
GI50 (RPMI-8226 leukemia): 2.73 µM
TGI (RPMI-8226 leukemia): 18.2 µM
GI50 (SR leukemia): 0.533 µM
TGI (SR leukemia): 16.7 µM
GI50 (LOX IMVI melanoma): 1.36 µM
TGI (LOX IMVI melanoma): 19 µM
GI50 (CCRF-CEM leukemia): 2.26 µM
TGI (CCRF-CEM leukemia): 19.7 µM
GI50 (NCI/ADR-RES ovarian): 0.703 µM
TGI (NCI/ADR-RES ovarian): 17 µM
GI50 (HL-60(TB) leukemia): 0.404 µM
TGI (HL-60(TB) leukemia): 4.8 µM
GI50 (SK-MEL-2 melanoma): 0.542 µM
TGI (SK-MEL-2 melanoma): 15.8 µM
GI50 (HOP-92 NSCLC): 3.54 µM
TGI (HOP-92 NSCLC): 19.4 µM
GI50 (NCI-H460 lung): 1.01 µM
TGI (NCI-H460 lung): 15.2 µM
GI50 (HCT-116 colon): 1.25 µM
TGI (HCT-116 colon): 16.1 µM
GI50 (OVCAR-3 ovarian): 0.497 µM
TGI (OVCAR-3 ovarian): 6.09 µM
GI50 (MDA-MB-231 breast): 2.48 µM
TGI (MDA-MB-231 breast): 13.8 µM
GI50 (BT-549 breast): 2.05 µM
TGI (BT-549 breast): 16.3 µM
GI50 (HOP-62 NSCLC): 2.13 µM
TGI (HOP-62 NSCLC): 19.4 µM
GI50 (NCI-H226 lung): 12.9 µM
TGI (NCI-H226 lung): 32.7 µM
GI50 (OVCAR-5 ovarian): 10.5 µM
TGI (OVCAR-5 ovarian): 24.1 µM
GI50 (T-47D breast): 1.72 µM
TGI (T-47D breast): 20 µM
GI50 (A549 NSCLC): 2.08 µM
TGI (A549 NSCLC): 19.4 µM
GI50 (UO-31 renal): 5.22 µM
TGI (UO-31 renal): 19.7 µM
GI50 (SF-295 CNS): 1.91 µM
TGI (SF-295 CNS): 15.5 µM
GI50 (786-0 renal): 3.45 µM
TGI (786-0 renal): 16.8 µM
GI50 (KM12 colon): 0.637 µM
TGI (KM12 colon): 15.9 µM
GI50 (UACC-62 melanoma): 0.558 µM
TGI (UACC-62 melanoma): 15.4 µM
GI50 (HT29 colon): 0.481 µM
TGI (HT29 colon): 11 µM
